From ChEMBL document CHEMBL3885881, “DrugMatrix”

Species: Rattus norvegicus
Assay: DrugMatrix - Regimen: Daily Repeat
Type: toxicity, organism-based, Sprague-Dawley
Parameters: regimen Daily Repeat, gender Male, age 6-8 weeks
Conditions: in vivo, po, route oral GAVAGE, vehicle .5 % CMC; for ABSOLUTE BASOPHIL / ABSOLUTE EOSINOPHIL / ABSOLUTE LYMPHOCYTE / ABSOLUTE MONOCYTE / ABSOLUTE SEGMENTED NEUTROPHIL / BASOPHIL / EOSINOPHIL / ERYTHROCYTE COUNT / HEMATOCRIT / HEMOGLOBIN / LEUKOCYTE COUNT / LYMPHOCYTE / MEAN CORPUSCULAR HEMOGLOBIN / MEAN CORPUSCULAR HEMOGLOBIN CONCENTRATION / MEAN CORPUSCULAR VOLUME / MONOCYTE / NEUTROPHIL / NUCLEATED RED BLOOD CELLS / PLATELET COUNT: tissue Blood; for ALANINE AMINOTRANSFERASE / ALBUMIN / ALKALINE PHOSPHATASE / ASPARTATE AMINOTRANSFERASE / BLOOD UREA NITROGEN / CARBON DIOXIDE / CHLORIDE / CHOLESTEROL / CREATINE PHOSPHOKINASE / CREATININE / GLUCOSE / LACTATE DEHYDROGENASE / LIPASE / PHOSPHORUS / POTASSIUM / SODIUM / TOTAL BILIRUBIN / TOTAL PROTEIN / URIC ACID: tissue Plasma
[1] = 44 mg/kg, 120 h, dose level Low, time 5 day
[2] = 439 mg/kg, 72 h, dose level High, time 3 day
[3] = 439 mg/kg, 120 h, dose level High, time 5 day

Which “ABSOLUTE BASOPHIL” value [1] does the source give for Brc1ccccc1 [BROMOBENZENE] here?
Its value is 0 CELLS/uL.

And the “ABSOLUTE EOSINOPHIL” value [1]?
Its value is 0 CELLS/uL.

And the “ABSOLUTE LYMPHOCYTE” value [1]?
The value was 9552.67 CELLS/uL.

What about the “ABSOLUTE MONOCYTE” value [1] of the same molecule?
The value was 143.67 CELLS/uL.

What about the “ABSOLUTE SEGMENTED NEUTROPHIL” value [1] of the same molecule?
The value was 903.67 CELLS/uL.

And the BASOPHIL [1]?
The BASOPHIL was 0%.

And the EOSINOPHIL [1]?
Its EOSINOPHIL is 0%.

And the “ERYTHROCYTE COUNT” value [1]?
The value was 5.33 x10E6/uL.

What about the HEMATOCRIT [1] of the same molecule?
Its HEMATOCRIT is 32.83%.

And the HEMOGLOBIN [1]?
The HEMOGLOBIN was 12.7 G/DL.

What about the “LEUKOCYTE COUNT” value [1] of the same molecule?
The value was 10.6 x10E3/uL.

And the LYMPHOCYTE [1]?
Its LYMPHOCYTE is 90%.

And the “MEAN CORPUSCULAR HEMOGLOBIN” value [1]?
Its value is 23.83 pg.

What about the “MEAN CORPUSCULAR HEMOGLOBIN CONCENTRATION” value [1] of the same molecule?
The value was 38.7 G/DL.

What about the “MEAN CORPUSCULAR VOLUME” value [1] of the same molecule?
Its value is 61.57 fL.

What about the MONOCYTE [1] of the same molecule?
Its MONOCYTE is 1.33%.

And the NEUTROPHIL [1]?
The NEUTROPHIL was 8.67%.

What about the “NUCLEATED RED BLOOD CELLS” value [1] of the same molecule?
The value was 0 /100WBC.

And the “PLATELET COUNT” value [1]?
Its value is 1057.33 x10E3/uL.

And the “ALANINE AMINOTRANSFERASE” value [1]?
The value was 40.67 u/L.

What about the ALBUMIN [1] of the same molecule?
Its ALBUMIN is 4.3 G/DL.

And the “ALKALINE PHOSPHATASE” value [1]?
Its value is 334.67 u/L.

What about the “ASPARTATE AMINOTRANSFERASE” value [1] of the same molecule?
Its value is 69.67 u/L.

What about the “BLOOD UREA NITROGEN” value [1] of the same molecule?
The value was 14.67 mg/dL.

And the “CARBON DIOXIDE” value [1]?
The value was 26.33 mmol/L.

And the CHLORIDE [1]?
Its CHLORIDE is 101.67 MEQ/L.

What about the CHOLESTEROL [1] of the same molecule?
Its CHOLESTEROL is 64.33 mg/dL.

And the “CREATINE PHOSPHOKINASE” value [1]?
The value was 162.67 u/L.

What about the CREATININE [1] of the same molecule?
The CREATININE was 0.24 mg/dL.

What about the GLUCOSE [1] of the same molecule?
The GLUCOSE was 160 mg/dL.

What about the “LACTATE DEHYDROGENASE” value [1] of the same molecule?
The value was 86.67 u/L.

What about the LIPASE [1] of the same molecule?
The LIPASE was 9.33 u/L.

And the PHOSPHORUS [1]?
Its PHOSPHORUS is 11.83 mg/dL.

What about the POTASSIUM [1] of the same molecule?
The POTASSIUM was 6.35 MEQ/L.

And the SODIUM [1]?
The SODIUM was 144.7 MEQ/L.

And the “TOTAL BILIRUBIN” value [1]?
The value was 0.1 mg/dL.

What about the “TOTAL PROTEIN” value [1] of the same molecule?
The value was 6.2 G/DL.

And the “URIC ACID” value [1]?
The value was 1.67 mg/dL.

What about the “ABSOLUTE BASOPHIL” value [2] of the same molecule?
Its value is 0 CELLS/uL.

And the “ABSOLUTE EOSINOPHIL” value [2]?
The value was 46.33 CELLS/uL.

And the “ABSOLUTE LYMPHOCYTE” value [2]?
Its value is 10833.67 CELLS/uL.

What about the “ABSOLUTE MONOCYTE” value [2] of the same molecule?
Its value is 138 CELLS/uL.

What about the “ABSOLUTE SEGMENTED NEUTROPHIL” value [2] of the same molecule?
The value was 1815.33 CELLS/uL.

And the BASOPHIL [2]?
Its BASOPHIL is 0%.

And the EOSINOPHIL [2]?
Its EOSINOPHIL is 0.33%.

And the “ERYTHROCYTE COUNT” value [2]?
Its value is 4.81 x10E6/uL.

And the HEMATOCRIT [2]?
Its HEMATOCRIT is 30.27%.

What about the HEMOGLOBIN [2] of the same molecule?
The HEMOGLOBIN was 11.9 G/DL.

And the “LEUKOCYTE COUNT” value [2]?
The value was 12.83 x10E3/uL.

What about the LYMPHOCYTE [2] of the same molecule?
Its LYMPHOCYTE is 85.33%.

And the “MEAN CORPUSCULAR HEMOGLOBIN” value [2]?
Its value is 24.7 pg.

What about the “MEAN CORPUSCULAR HEMOGLOBIN CONCENTRATION” value [2] of the same molecule?
Its value is 39.3 G/DL.

And the “MEAN CORPUSCULAR VOLUME” value [2]?
Its value is 62.83 fL.

And the MONOCYTE [2]?
The MONOCYTE was 1%.

And the NEUTROPHIL [2]?
The NEUTROPHIL was 13.33%.

What about the “NUCLEATED RED BLOOD CELLS” value [2] of the same molecule?
Its value is 0.33 /100WBC.

What about the “PLATELET COUNT” value [2] of the same molecule?
The value was 1082.33 x10E3/uL.

And the “ALANINE AMINOTRANSFERASE” value [2]?
The value was 59 u/L.

And the ALBUMIN [2]?
The ALBUMIN was 4.17 G/DL.

What about the “ALKALINE PHOSPHATASE” value [2] of the same molecule?
The value was 378.33 u/L.

What about the “ASPARTATE AMINOTRANSFERASE” value [2] of the same molecule?
The value was 83.67 u/L.

What about the “BLOOD UREA NITROGEN” value [2] of the same molecule?
The value was 15 mg/dL.

And the “CARBON DIOXIDE” value [2]?
The value was 29.33 mmol/L.

And the CHLORIDE [2]?
Its CHLORIDE is 100.67 MEQ/L.

What about the CHOLESTEROL [2] of the same molecule?
Its CHOLESTEROL is 84.67 mg/dL.

And the “CREATINE PHOSPHOKINASE” value [2]?
Its value is 171 u/L.

And the CREATININE [2]?
The CREATININE was 0.22 mg/dL.

And the GLUCOSE [2]?
Its GLUCOSE is 160 mg/dL.

What about the “LACTATE DEHYDROGENASE” value [2] of the same molecule?
Its value is 172 u/L.

What about the LIPASE [2] of the same molecule?
Its LIPASE is 12 u/L.

And the PHOSPHORUS [2]?
The PHOSPHORUS was 12.47 mg/dL.

What about the POTASSIUM [2] of the same molecule?
Its POTASSIUM is 6.1 MEQ/L.

And the SODIUM [2]?
The SODIUM was 143.47 MEQ/L.

And the “TOTAL BILIRUBIN” value [2]?
Its value is 0.13 mg/dL.

And the “TOTAL PROTEIN” value [2]?
The value was 5.97 G/DL.

What about the “URIC ACID” value [2] of the same molecule?
The value was 1.03 mg/dL.

What about the “ABSOLUTE BASOPHIL” value [3] of the same molecule?
Its value is 0 CELLS/uL.

And the “ABSOLUTE EOSINOPHIL” value [3]?
Its value is 0 CELLS/uL.

What about the “ABSOLUTE LYMPHOCYTE” value [3] of the same molecule?
The value was 9268 CELLS/uL.

And the “ABSOLUTE MONOCYTE” value [3]?
Its value is 132.4 CELLS/uL.

And the “ABSOLUTE SEGMENTED NEUTROPHIL” value [3]?
The value was 919.6 CELLS/uL.

And the BASOPHIL [3]?
Its BASOPHIL is 0%.

And the EOSINOPHIL [3]?
Its EOSINOPHIL is 0%.

And the “ERYTHROCYTE COUNT” value [3]?
The value was 5.45 x10E6/uL.

What about the HEMATOCRIT [3] of the same molecule?
The HEMATOCRIT was 32.3%.

And the HEMOGLOBIN [3]?
Its HEMOGLOBIN is 12.54 G/DL.

What about the “LEUKOCYTE COUNT” value [3] of the same molecule?
Its value is 10.32 x10E3/uL.

And the LYMPHOCYTE [3]?
The LYMPHOCYTE was 89.6%.

And the “MEAN CORPUSCULAR HEMOGLOBIN” value [3]?
The value was 23 pg.

What about the “MEAN CORPUSCULAR HEMOGLOBIN CONCENTRATION” value [3] of the same molecule?
The value was 38.82 G/DL.

And the “MEAN CORPUSCULAR VOLUME” value [3]?
The value was 59.26 fL.

What about the MONOCYTE [3] of the same molecule?
Its MONOCYTE is 1.2%.

And the NEUTROPHIL [3]?
The NEUTROPHIL was 9.2%.

What about the “NUCLEATED RED BLOOD CELLS” value [3] of the same molecule?
The value was 0.2 /100WBC.

What about the “PLATELET COUNT” value [3] of the same molecule?
Its value is 1078.8 x10E3/uL.

What about the “ALANINE AMINOTRANSFERASE” value [3] of the same molecule?
Its value is 43.2 u/L.

What about the ALBUMIN [3] of the same molecule?
The ALBUMIN was 4.4 G/DL.

What about the “ALKALINE PHOSPHATASE” value [3] of the same molecule?
Its value is 375.2 u/L.

And the “ASPARTATE AMINOTRANSFERASE” value [3]?
The value was 72.8 u/L.

What about the “BLOOD UREA NITROGEN” value [3] of the same molecule?
The value was 16.2 mg/dL.

What about the “CARBON DIOXIDE” value [3] of the same molecule?
Its value is 25.2 mmol/L.

And the CHLORIDE [3]?
Its CHLORIDE is 102.4 MEQ/L.

What about the CHOLESTEROL [3] of the same molecule?
The CHOLESTEROL was 77.2 mg/dL.

And the “CREATINE PHOSPHOKINASE” value [3]?
Its value is 262.4 u/L.

And the CREATININE [3]?
Its CREATININE is 0.2 mg/dL.

And the GLUCOSE [3]?
The GLUCOSE was 153.6 mg/dL.

What about the “LACTATE DEHYDROGENASE” value [3] of the same molecule?
The value was 118.8 u/L.

And the LIPASE [3]?
Its LIPASE is 9.6 u/L.

What about the PHOSPHORUS [3] of the same molecule?
The PHOSPHORUS was 12.5 mg/dL.

And the POTASSIUM [3]?
The POTASSIUM was 6.84 MEQ/L.

And the SODIUM [3]?
The SODIUM was 144.22 MEQ/L.

What about the “TOTAL BILIRUBIN” value [3] of the same molecule?
The value was 0.18 mg/dL.

And the “TOTAL PROTEIN” value [3]?
The value was 6.18 G/DL.

And the “URIC ACID” value [3]?
The value was 1.92 mg/dL.
